The values below come from patent US20070270586A1, “NOVEL CRYSTAL OF 7-[2-[(2-AMINOTHIAZOL-4-YL)-2-HYDROXYIMINOACETAMIDE-3-VINYL-3-CEPHEM-4-CARBOXYLIC ACID (SYN ISOMER) AND METHOD FOR PREPARATION THEREOF” (priority 2003, published 2007).

This series is described as follows: speed of dissolution in water (10 mg crystal in 50 mL ion exchanged water, 60 rpm, concentration by liquid chromatography). It is filed as physicochemical. Conditions: for concentration (elution %): 10 mg in 50 mL ion exchanged water, 60 revolutions per minute. The method, then:
The anhydrous form of a B type crystal of 7-[2-(2-aminothiazol-4-yl)-2-hydroxyiminoacetamide]-3-vinyl-3-cephem-4-carboxylic acid (syn isomer) obtained in Example 2, and the A type crystal of a compound (I) obtained by deposition of a crystal from a sodium bicarbonate aqueous solution having a pH value of 3.6 and a temperature of 22° C. in Example 1 were used, and the speed of dissolution thereof in water was measured.
Namely, each 10 mg of the above-mentioned A type crystal or B type crystal was put into 50 mL of ion exchanged water and dissolved at a revolution per minute of 60, and the concentrations of each crystal in the solution with the lapse of time were measured by liquid chromatography.

Structures are written as SMILES.

Turning to `C=CC1=C(C(=O)O)N2C(=O)C(NC(=O)/C(=N\O)c3csc(N)n3)C2SC1` (stereo not drawn) [A type crystal, 7-[2-(2-aminothiazol-4-yl)-2-hydroxyiminoacetamide]-3-vinyl-3-cephem-4-carboxylic acid (syn isomer), reference compound], the “concentration (elution %)” value is on record as 32.7 elution % (lapse time 110 min), 39.7 elution % (lapse time 340 min) and 63.7 elution % (lapse time 700 min).
With `C=CC1=C(C(=O)O)N2C(=O)C(NC(=O)/C(=N\O)c3csc(N)n3)C2SC1` (stereo not drawn) [B type crystal, 7-[2-(2-aminothiazol-4-yl)-2-hydroxyiminoacetamide]-3-vinyl-3-cephem-4-carboxylic acid (syn isomer)], the “solubility in water compared with conventional A type crystal” value (conclusion from Table 5) is on record as “more excellent solubility in water as compared with a conventional A type crystal”. For the same molecule, the “concentration (elution %)” value reads like this: (lapse time 110 min) 72.8 elution %; (lapse time 340 min) 78.4 elution %; (lapse time 700 min) 91.1 elution %.
